Active and inactive are the calls of the source. For most assays here, no stated cut-off is given here; in the data, actives have a measured EC50 and inactives only a lower limit.
What was measured:
[1] = target: Adenosylmethionine-8-amino-7-oxononanoate aminotransferase (Mycobacterium tuberculosis, UniProt P9WQ81); assay: Mycobacterium tuberculosis BioA enzyme inhibitor Measured in Biochemical System Using Plate Reader - 2163-02_Inhibitor_Dose_CherryPick_Activity.; format: functional, Mycobacterium tuberculosis UT205
Sequence of Adenosylmethionine-8-amino-7-oxononanoate aminotransferase (P9WQ81 whole entry): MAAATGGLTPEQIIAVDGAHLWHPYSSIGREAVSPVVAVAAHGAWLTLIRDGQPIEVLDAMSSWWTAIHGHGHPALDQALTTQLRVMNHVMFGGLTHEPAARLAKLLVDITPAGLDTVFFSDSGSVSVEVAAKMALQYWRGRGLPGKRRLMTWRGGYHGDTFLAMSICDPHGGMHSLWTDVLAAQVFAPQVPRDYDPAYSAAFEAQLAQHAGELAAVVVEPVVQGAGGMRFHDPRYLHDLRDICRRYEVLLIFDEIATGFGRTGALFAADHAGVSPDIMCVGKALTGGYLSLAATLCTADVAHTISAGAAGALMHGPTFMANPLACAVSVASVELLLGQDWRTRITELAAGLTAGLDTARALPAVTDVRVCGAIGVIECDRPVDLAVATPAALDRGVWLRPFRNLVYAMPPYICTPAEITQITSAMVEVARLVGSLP

Interleukin-8 [2] = target: T1, Interleukin-8 (Homo sapiens, UniProt P10145); assay: Dose Response confirmation of uHTS small molecule hits for cystic fibrosis induced NFkb Inhibitors in a TNFa-induced IL8 counterscreen.; format: functional; conditions: read-out: IC50_Mean
T1 sequence (P10145 whole entry): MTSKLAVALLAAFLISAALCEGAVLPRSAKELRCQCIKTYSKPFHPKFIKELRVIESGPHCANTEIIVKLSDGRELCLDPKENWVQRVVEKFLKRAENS

Interleukin-8 [3] = target: T1, Interleukin-8; assay: Dose Response confirmation of uHTS small molecule hits for cystic fibrosis induced NFkb Inhibitors in a PAF-induced IL8 counterscreen.; format: functional; conditions: read-out: IC50_Mean
[4] = viability of uninfected HEp-2 cells – cell-based, HTS, cytotoxicity control for RSV inhibitor project, dose response (AID 2410); format: functional; conditions: human respiratory syncytial virus
[5] = target: Mitochondrial peptide methionine sulfoxide reductase (Bos taurus, UniProt P54149); format: functional;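 further: absorbance read-out, biochemical high-throughput dose-response screen for MsrA inhibitors, confirmatory; recombinant bovine MsrA coupled to E. coli TrxB with NADPH and selenocystamine; potency is for inhibitors of MsrA activity on DMSO substrate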
Sequence of Mitochondrial peptide methionine sulfoxide reductase (P54149 whole entry): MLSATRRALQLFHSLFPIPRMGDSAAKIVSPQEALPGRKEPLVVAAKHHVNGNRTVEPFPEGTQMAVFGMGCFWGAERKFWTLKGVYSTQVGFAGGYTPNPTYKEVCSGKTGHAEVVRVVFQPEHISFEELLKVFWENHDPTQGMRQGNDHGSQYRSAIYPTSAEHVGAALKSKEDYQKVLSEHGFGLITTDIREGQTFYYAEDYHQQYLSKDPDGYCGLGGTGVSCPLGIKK

[6] = bead-based luminescence quenchers, dual-tagged ARNT – biochemical, AlphaScreen, cherry-pick, artefact control for ARNT-TACC3 interaction inhibitor project, dose response (AID 651705); format: functional;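 further: AlphaScreen bead proximity signal that flags compounds interfering with the detection technology; potency reflects signal decrease which marks the compound as an assay artifact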
[7] = NIH-3T3 fibroblast cytotoxicity, dose response, cytotoxicity control, cell-based, fluorescence, Alamar Blue, secondary assay (AID 2327); format: functional;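 further: NIH-3T3 mouse fibroblasts cultured with fluconazole at 8 µg/mL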
[8] = test system: Streptococcus sp. 'group A'; assay: Streptococcus pyogenes SK(-)GAS viability under kanamycin – luminescence, BacTiterGlo, confirmation, counter-screen for streptokinase expression inhibitor project, dose response (AID 1900); format: functional, organism-based
BJ [9] = assay: BJ-TERT fibroblast viability loss – cell-based, RAS-independent, luminescence, dose response (AID 1933); format: functional; conditions: Homo sapiens
[10] = target: Luciferin 4-monooxygenase (Photinus pyralis, UniProt P08659); assay: Counter Screen for Luciferase-based Assay Positives. [Related pubchem assays: 620, 618, 411 ]
Sequence of Luciferin 4-monooxygenase (P08659 whole entry): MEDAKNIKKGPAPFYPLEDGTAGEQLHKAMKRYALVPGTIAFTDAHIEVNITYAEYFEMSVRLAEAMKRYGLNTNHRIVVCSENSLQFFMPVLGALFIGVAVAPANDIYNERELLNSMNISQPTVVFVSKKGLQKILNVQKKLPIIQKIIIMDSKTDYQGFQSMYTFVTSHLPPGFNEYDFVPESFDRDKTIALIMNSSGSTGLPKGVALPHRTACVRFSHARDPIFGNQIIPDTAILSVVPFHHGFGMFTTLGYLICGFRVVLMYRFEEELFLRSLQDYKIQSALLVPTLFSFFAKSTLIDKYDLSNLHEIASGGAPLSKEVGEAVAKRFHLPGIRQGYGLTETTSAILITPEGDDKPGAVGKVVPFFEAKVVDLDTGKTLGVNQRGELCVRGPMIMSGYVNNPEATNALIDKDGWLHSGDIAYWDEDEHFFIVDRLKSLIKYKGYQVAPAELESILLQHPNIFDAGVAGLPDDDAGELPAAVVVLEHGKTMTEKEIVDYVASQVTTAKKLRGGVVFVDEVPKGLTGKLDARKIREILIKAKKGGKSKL

cells [11] = format: functional, cell-based
Streptokinase A = target: T2, Streptokinase A (Streptococcus pyogenes serotype M1, UniProt P10520); assay: viability-normalized secreted streptokinase activity reduction – plasminogen activation absorbance, OD405, dose response (AID 1914); format: functional, Streptococcus pyogenes M1 GAS;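 further: secreted streptokinase activity via plasminogen activation per viability signal from cell pellet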
T2 sequence (P10520 whole entry): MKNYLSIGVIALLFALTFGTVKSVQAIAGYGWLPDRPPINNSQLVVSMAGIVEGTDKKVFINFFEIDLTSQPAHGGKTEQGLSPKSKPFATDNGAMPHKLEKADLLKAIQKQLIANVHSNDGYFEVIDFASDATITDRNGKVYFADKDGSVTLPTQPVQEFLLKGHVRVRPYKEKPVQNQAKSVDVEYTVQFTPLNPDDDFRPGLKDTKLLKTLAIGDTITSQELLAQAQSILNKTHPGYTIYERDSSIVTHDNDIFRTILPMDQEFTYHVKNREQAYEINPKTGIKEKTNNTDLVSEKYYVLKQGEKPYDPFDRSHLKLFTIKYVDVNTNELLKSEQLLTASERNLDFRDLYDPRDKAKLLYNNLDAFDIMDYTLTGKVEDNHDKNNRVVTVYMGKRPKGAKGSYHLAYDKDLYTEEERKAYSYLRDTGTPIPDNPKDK

BJ [12] = assay: cells; format: functional, cell-based; conditions: Homo sapiens
[13] = fluconazole-exposed Candida albicans growth modulators – fluorescence, retest, confirmation (AID 2467); format: functional, cell-based
cells [14] = format: functional, cell-based; remark: listed apart in the source
[15] = viability of PTEN-deleted HCT116 cells – cell-based, HCT116 PTEN knockout, dose response (AID 1047); format: functional;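 further: HCT116 colon tumor cells with PTEN knocked out; cells exposed to compound for 60 hours before readout; potency for loss of cell viability measured by luminescence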
[16] = target: T3, Serine/threonine-protein phosphatase (Candida dubliniensis (strain CD36 / CBS 7987 / NCPF 3949 / NRRLY-17841) (Yeast), UniProt B9W6M3); assay: blockers of CaCl2-induced CDRE-lacZ signaling – S. cerevisiae, luminescence, secondary, dose response (AID 2388); format: functional, cell-based;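 further: yeast reporter cells carrying a calcineurin-responsive lacZ construct stimulated with calcium chloride; luminescent beta-galactosidase reporter signal in whole cells rather than isolated phosphatase activity; potency for inhibition where a drop in reporter signal means calcineurin blockade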
T3 sequence (B9W6M3 whole entry): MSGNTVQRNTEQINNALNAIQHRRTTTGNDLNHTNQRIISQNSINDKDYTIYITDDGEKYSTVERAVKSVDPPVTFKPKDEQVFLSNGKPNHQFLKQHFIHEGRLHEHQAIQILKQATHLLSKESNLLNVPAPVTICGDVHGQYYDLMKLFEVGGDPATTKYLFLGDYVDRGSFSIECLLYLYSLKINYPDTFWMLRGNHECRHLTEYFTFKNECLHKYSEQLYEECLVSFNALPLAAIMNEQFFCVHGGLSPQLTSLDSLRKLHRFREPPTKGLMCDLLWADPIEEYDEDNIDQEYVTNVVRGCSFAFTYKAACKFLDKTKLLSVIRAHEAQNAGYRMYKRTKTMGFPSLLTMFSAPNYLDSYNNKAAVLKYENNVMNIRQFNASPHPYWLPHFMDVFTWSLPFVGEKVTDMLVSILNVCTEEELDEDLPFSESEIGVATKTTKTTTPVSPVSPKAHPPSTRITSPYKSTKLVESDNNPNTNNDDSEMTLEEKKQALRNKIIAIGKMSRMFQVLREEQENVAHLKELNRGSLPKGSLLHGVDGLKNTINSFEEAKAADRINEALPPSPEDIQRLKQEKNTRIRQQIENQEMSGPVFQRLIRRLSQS

HT-1080 = assay: HT1080 cell viability loss – fluorescence readout (AID 620); format: functional, cell-based; conditions: Homo sapiens
[17] = viability of HCT116 lacking mutant beta-catenin – cell-based, human colon tumor, dose response (AID 1045); format: functional;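 further: HCT116 colon tumor cells with beta catenin knocked out; cells exposed to compound for 60 hours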
BJ [18] = assay: BJ-TERT-LT-ST fibroblast viability loss – cell-based, RAS-independent, luminescence, dose response (AID 1935); format: functional; conditions: Homo sapiens;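 further: BJ fibroblasts immortalized with TERT plus LT and ST oncogenes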
[19] = DRD fibroblast viability loss – cell-based, non-viral oncogenic, luminescence, dose response (AID 1934); format: functional; conditions: Homo sapiens
Streptococcus = assay: GAS UMAA2166 growth inhibition – luminescence, BacTiterGlo, counter-screen for streptokinase expression inhibitor project, dose response (AID 1915); format: functional, organism-based;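 further: potency for reduction of bacterial viability or growth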
Nonstructural protein 1 = Nonstructural protein 1 (Influenza A virus, UniProt Q194T2); format: functional, Influenza A virus (A/California/07/2009(H1N1))
Sequence of Nonstructural protein 1 (Q194T2 whole entry): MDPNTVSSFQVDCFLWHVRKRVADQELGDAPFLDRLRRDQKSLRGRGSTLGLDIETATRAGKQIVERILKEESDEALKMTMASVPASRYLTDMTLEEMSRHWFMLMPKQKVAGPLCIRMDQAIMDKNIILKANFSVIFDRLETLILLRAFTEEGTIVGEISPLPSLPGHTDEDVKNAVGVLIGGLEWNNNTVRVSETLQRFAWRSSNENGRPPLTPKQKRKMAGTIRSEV

[20] = target: Heat shock protein HSP 90-alpha (Homo sapiens, UniProt P07900); format: functional, organism-based
[21] = target: ATP-dependent molecular chaperone HSP82 (Candida albicans (strain WO-1) (Yeast), UniProt C4YTQ8); assay: steroid-induced GRE reporter decrease in yeast – S. cerevisiae, luminescence, Hsp90 inhibitor project, dose response (AID 2400); format: functional, cell-based;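 further: beta-galactosidase luminescence from glucocorticoid response element reporter as proxy for Hsp90 function; inhibitor potency where signal loss means Hsp90 inhibition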
Sequence of ATP-dependent molecular chaperone HSP82 (C4YTQ8 whole entry): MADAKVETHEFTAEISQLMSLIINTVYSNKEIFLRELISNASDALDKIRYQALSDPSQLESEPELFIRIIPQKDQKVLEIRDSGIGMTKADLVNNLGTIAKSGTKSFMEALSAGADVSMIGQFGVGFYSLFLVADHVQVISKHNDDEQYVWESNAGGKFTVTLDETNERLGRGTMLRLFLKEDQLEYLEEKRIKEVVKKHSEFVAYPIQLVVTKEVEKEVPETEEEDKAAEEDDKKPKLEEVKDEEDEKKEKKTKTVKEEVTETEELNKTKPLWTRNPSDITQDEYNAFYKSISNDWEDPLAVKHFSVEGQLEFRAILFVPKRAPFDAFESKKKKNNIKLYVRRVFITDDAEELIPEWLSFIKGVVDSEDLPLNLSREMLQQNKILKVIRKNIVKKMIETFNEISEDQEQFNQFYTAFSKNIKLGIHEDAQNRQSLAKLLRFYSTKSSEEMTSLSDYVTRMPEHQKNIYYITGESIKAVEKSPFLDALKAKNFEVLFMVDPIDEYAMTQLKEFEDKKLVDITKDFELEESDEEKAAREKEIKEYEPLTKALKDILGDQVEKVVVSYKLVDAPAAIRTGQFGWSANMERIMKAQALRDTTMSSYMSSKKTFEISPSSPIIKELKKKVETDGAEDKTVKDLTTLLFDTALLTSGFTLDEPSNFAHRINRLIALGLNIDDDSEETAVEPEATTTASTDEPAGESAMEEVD

[22] = mammalian cell viability loss – Alamar Blue, dry powder, cytotoxicity control for antifungal single agent project, dose response (AID 602188); format: functional, cell-based
[23] = target: Tyrosine-protein phosphatase non-receptor type 11 (Homo sapiens, UniProt Q06124); assay: PTPN11 enzyme inhibitors – biochemical, selectivity assay for STEP inhibitor project, dose response (AID 602367); format: functional; conditions: read-out: IC50_Mean
Sequence of Tyrosine-protein phosphatase non-receptor type 11 (Q06124 whole entry): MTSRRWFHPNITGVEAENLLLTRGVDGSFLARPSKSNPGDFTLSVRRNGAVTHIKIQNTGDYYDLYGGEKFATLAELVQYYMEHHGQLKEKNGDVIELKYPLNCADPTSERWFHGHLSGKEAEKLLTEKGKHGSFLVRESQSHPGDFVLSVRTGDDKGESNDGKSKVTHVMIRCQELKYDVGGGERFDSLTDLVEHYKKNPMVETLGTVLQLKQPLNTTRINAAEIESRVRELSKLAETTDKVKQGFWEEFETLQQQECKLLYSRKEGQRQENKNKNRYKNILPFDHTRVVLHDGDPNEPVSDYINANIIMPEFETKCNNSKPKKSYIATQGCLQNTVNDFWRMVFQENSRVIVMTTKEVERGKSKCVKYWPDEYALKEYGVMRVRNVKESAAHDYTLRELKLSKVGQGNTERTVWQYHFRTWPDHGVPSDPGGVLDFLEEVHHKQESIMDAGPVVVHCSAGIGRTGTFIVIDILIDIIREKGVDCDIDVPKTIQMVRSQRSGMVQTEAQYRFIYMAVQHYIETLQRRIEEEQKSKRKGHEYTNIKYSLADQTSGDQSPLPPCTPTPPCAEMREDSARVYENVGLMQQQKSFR

[24] = target: Tyrosine-protein phosphatase non-receptor type 5 (Homo sapiens, UniProt P54829); assay: PTPN5 enzyme inhibition – biochemical, fluorescence intensity, uHTS hits, confirmation (AID 602372); format: functional; conditions: read-out: IC50_Mean
Sequence of Tyrosine-protein phosphatase non-receptor type 5 (P54829 whole entry): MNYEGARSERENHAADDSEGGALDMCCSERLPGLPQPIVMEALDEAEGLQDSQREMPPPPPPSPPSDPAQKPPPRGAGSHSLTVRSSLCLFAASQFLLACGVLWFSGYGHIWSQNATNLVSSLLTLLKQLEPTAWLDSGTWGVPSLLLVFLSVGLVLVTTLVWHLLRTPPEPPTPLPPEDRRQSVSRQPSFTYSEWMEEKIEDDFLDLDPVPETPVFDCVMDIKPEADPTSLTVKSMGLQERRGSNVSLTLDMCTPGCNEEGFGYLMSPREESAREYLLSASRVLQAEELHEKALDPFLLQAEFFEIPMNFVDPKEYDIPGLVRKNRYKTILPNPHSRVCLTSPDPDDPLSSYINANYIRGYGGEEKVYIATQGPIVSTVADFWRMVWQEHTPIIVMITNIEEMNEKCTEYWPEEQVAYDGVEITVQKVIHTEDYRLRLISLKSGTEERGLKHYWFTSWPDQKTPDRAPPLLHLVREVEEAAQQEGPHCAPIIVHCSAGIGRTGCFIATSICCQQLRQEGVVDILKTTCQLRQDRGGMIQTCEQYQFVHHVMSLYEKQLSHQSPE

[25] = target: Dual specificity protein phosphatase 3 (Homo sapiens, UniProt P51452); assay: VHR phosphatase inhibition, dose response, selectivity assay for STEP inhibitor project, biochemical (AID 602374); format: functional; conditions: read-out: IC50_Mean
Sequence of Dual specificity protein phosphatase 3 (P51452 whole entry): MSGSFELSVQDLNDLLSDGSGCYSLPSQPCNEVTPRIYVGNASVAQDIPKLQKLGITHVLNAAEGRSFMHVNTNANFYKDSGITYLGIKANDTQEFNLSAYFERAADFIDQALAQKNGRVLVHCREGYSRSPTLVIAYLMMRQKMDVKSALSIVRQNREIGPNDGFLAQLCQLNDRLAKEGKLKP

## C/C=C(/C)C(=O)OC(C)(C)[C@@H]1Cc2c(ccc3ccc(=O)oc23)O1 [COLUMBIANADIN]
[1]
  AC50: 0.389 µM (active)

## C=CC(=O)Nc1cccc(Oc2[nH]cnc3ncc(-c4cnc5ccccc5c4)c2-3)c1
Interleukin-8 [2]
  IC50: 3.39 µM (active)
Interleukin-8 [3]
  IC50: 2.52 µM (active)

## C/C(N)=C(/C#N)C(=O)CSc1nn(-c2ccc(Cl)cc2)c(=S)s1
[4]
  CC50: 15.9 µM (active)
[5]
  IC50: 155 µM (inactive)

## O=C(CSc1cccc2cccnc12)Nc1cc(C(=O)O)cc(C(=O)O)c1
[6]
  AC50: 104 µM (active)

## Oc1c(CN2CCc3ccccc3C2)cc(Cl)c2cccnc12
[7]
  EC50: > 160 µM (inactive)
[8]
  EC50: 2.95 µM (active)
BJ [9]
  EC50: 8.6 µM (active)
[10]
  EC50: 17.7 µM (active)
Cells [11]
  EC50: > 350 µM (not active)
Streptokinase A
  EC50: > 150 µM (not active)
BJ [12]
  EC50: 10.9 µM (active)
[13]
  EC50: 0.712 µM (active)
Cells [14]
  EC50: > 350 µM (not active)
[15]
  EC50: 1.03 µM (active)
[16]
  EC50: > 180 µM (inactive)
HT-1080
  EC50: 22.2 µM (active)
[17]
  EC50: 0.973 µM (active)
BJ [18]
  EC50: 8.45 µM (inconclusive)
[19]
  EC50: 6.01 µM (active)
Streptococcus
  EC50: 9.33 µM (active)
Nonstructural protein 1
  IC50: 11.1 µM (active)
[20]
  AC50: 7.67 µM (active)
[21]
  EC50: > 160 µM (inactive)
[22]
  AC50: < 0.1 µM (active)

## O=C(NN=Cc1ccccc1O)NN=Cc1ccccc1O
[23]
  IC50: 3.93 µM (active)
[24]
  IC50: 10.1 µM (active)
[25]
  IC50: 4.05 µM (active)
